One compound from patent US8552064B2, “Suramin and derivatives thereof as topical microbicide and contraceptive” (Eastern Virginia Medical School, priority 2005, dated 2013) can be followed below.

The subject of one test is HIV-1 clinical isolates. As to the kind of experiment: Clinical isolates in PBMC assay. In kind it is cell-based. The protocol:
Peripheral blood mononuclear cells (PBMCs) were obtained from normal hepatitis and HIV-1 negative donors by ficoll hypaque gradient separation. Briefly, anti-coagulated blood is diluted 1:1 with Dulbecco's phosphate buffered saline without Ca^++ and Mg^++ (PBS) and layered over 14 mL of Lymphocyte separation media in a 50 ml centrifuge tube. Tubes were then centrifuged for 30 minutes at 600×g. Banded PBMCs were gently aspirated from the resulting interface and subsequently washed 2× with PBS by low speed centrifugation. The mononuclear cells were counted, viability was determined by Trypan Blue dye exclusion and the cells were resuspended in RPMI 1640 medium supplemented with 15% FBS (heat inactivated), 2 mM L-glutamine, 100 U/mL penicillin, 100 μg/mL streptomycin, and 10 μg/mL gentamycin with 20 U/mL recombinant IL-2 (R&D Systems, Minneapolis, Minn.). […]
Human peripheral blood mononuclear cells from a minimum of two donors, that have been stimulated with PHS- and IL-2, were counted and their viability was determined by Trypan Blue dye exclusion and mixed in equal rations. Pooled donors were used to minimize the variability observed between individual donors, which results from quantitative and qualitative differences in HIV infection, and overall response to the PHA and IL-2 of primary lymphocyte populations. […]

Test [1] relates to human sperm binding to zona pellucida. The experiment in a line: Hemizona assay (HZA), human sperm-zona binding. In kind it is cell-based. Here is the method:
The hemizona assay, as described in Burkman L. J., et al., Fertil. Steril., 49: 688-697 (1988), was used to measure the ability of sperm to undergo capacitation and bind to the zona pellucida of an oocyte. Briefly, in this assay, motile normal sperm were separated in media with bovine serum albumin, which triggers capacitation. Human motile sperm were separated using a swim-up technique and incubated with 1 mM suramin or solvent-control medium for 15 minutes in 100 μL medium droplets covered with mineral oil, at 37° C., 5% CO2. Sperm were then incubated with dead oocytes which are surrounded by the zona pellucida, an acellular coating of oocytes. Bisected hemizonae corresponding to one oocyte were placed each in the test (suramin) and control (solvent) droplets and incubated for an additional 4 hours. Sperm-hemizonae complexes were washed extensively and capacitated spermatozoa bound to the outer surface of the zonae and were counted under an inverted microscope. The Hemizona Index (HZI) was calculated by dividing the number of suramin-treated sperm bound to one hemizona by the number of untreated (control) sperm bound to the other hemizona.

For test [2], the system named is HIV-1 transmission from H9-SK1 cells to ME-180 cervical epithelial cells. As to the kind of experiment: ME-180-based topical microbicide assay (CD4-independent epithelial cell transmission). The protocol: ME-180 cervical epithelial cells were plated in the interior wells of a 96-well flat bottom microtiter plate at a density of 5×10^3 cells per well and incubated overnight. Chronically infected H9 cells (H9-SK1) were treated with 200 μg/ml mitomycin C (Sigma) in complete medium for one hour, washed extensively and resuspended at 4×10^5 per ml. […] Antiviral compounds and chronically infected cells (2×10^4 cells) were added to each well containing ME-180 cells and incubated for 6 hours. Following co-cultivation, the monolayer was washed extensively and fresh medium was added. Medium was removed and fresh medium was added at 24 and 48 hours post-infection to remove dead lymphocytes. On day 6 post-infection, supernatant samples were removed and analyzed for virus content by p24 ELISA (Phillips D M et al., 1995, J Virol Methods, March, 52 (1-2): 1-13).

A further test deals with SIV. As to the kind of experiment: SIV reverse transcriptase assay. In kind it is cell-based. Here is the method: Reverse transcriptase activity, a measurement of virus replication, was measured in cell-free supernatants. Tritiated thymidine triphosphate (NEN) (TFP) was resuspended in distilled H2O at 5 Ci/mL. Poly rA and oligo dT were prepared as a stock solution which was kept at −20° C. The RT reaction buffer was prepared fresh on a daily basis and consisted of 125 μL 1.0 M EGTA, 125 μL dH2O, 110 μL 10% […], 50 μL 1.0 M Tris (pH 7.4), 50 μL 1.0 M DTT, and 40 μL 1.0 M MgCl2. These three solutions were mixed together in a ratio of 2 parts TTP, 1 part poly rA:oligo dT, and 1 part reaction buffer. Ten microliters (10 μL) of this reaction mixture was placed in a round bottom microtiter plate and 15 μL of virus containing supernatant added and mixed. The plate was incubated at 37° C. for 60 minutes. Following reaction, the reaction volume was spotted onto pieces of DE81 paper, washed 5 times for 5 minutes each in a 5% sodium phosphate buffer, 2 times for 1 minute each in distilled water, 2 times for 1 minute each in 70% ethanol, and then dried. Opti-Fluor 0 was added to each sample and incorporated radioactivity quantitated utilizing a Wallac 1450 Microbetaplus liquid scintillation counter. The results of this assay are provided herein.

≈ marks a conversion by molar mass, not a printed value.

Consider `Cc1ccc(C(=O)Nc2ccc(S(=O)(=O)O)c3cc(S(=O)(=O)O)cc(S(=O)(=O)O)c23)cc1NC(=O)c1cccc(NC(=O)Nc2cccc(C(=O)Nc3cc(C(=O)Nc4ccc(S(=O)(=O)O)c5cc(S(=O)(=O)O)cc(S(=O)(=O)O)c45)ccc3C)c2)c1` [Suramin, 8,8′-(carbonylbis(imino-3,1-phenylenecarbonylimino(4-methyl-3,1-phenylene)carbonylimino))bis-1,3,5-naphthalene trisulfonic acid], for which the “Potency, HIV-1 Clin Isolates” value in the test with HIV-1 clinical isolates is listed as “High”. For the same compound, the 50% inhibitory concentration (IC50) in the test on HIV-1 clinical isolates (Human immunodeficiency virus 1, PBMC, read-out: IC50 Clin Isolates) was found to be 14.6 µg/mL (≈ 11.3 µM); in test [2] (Human immunodeficiency virus 1, ME-180, CD4-independent epithelial cell transmission) it was 24.5 µg/mL (≈ 18.9 µM); with SIV (Simian immunodeficiency virus) it was 4 µg/mL (≈ 3.08 µM). Also, the “Potency, ZP binding (HZA)” value in test [1] was “High”. Besides, the “Hemizona Index (HZI)” value in test [1] (1 mM, n=9) turned out to be 0.08±0.01. This compound came in with an inhibition at 1000 µM in test [1] (Homo sapiens, Sperm, 1 mM) of 92%. Besides, the “Potency, HIV-1 ME-180” value in test [2] is reported as “High”. Also, in test [2] (addition of mucin), the “effect of mucin on activity in ME-180 assay” value was “did not significantly reduce suramin's activity”. Moreover, the “Potency, SIV Reverse transcriptase” value in the test on SIV is recorded as “High”.

The IC50 is the concentration at which inhibition is half-maximal. As usually defined, the inhibition is how much of the control response was suppressed. Read a high inhibition as a strong effect.
